From the NIST ThermoML archive (doi:10.1016/j.fluid.2012.01.008)
Numbers after ± are expanded uncertainties.

Conditions: 313.15 K; Liquid; Closed cell (Static) method

Structure (SMILES)	vapor or sublimation pressure [kPa]
CCCCCCC [heptane]	12.34 ± 0.03
Cc1ccccc1 [toluene]	7.886 ± 0.022
